# Laboratory results from patent US20200164006A1, “METHODS AND COMPOSITIONS OF INCORPORATING A BIOACTIVE AGENT AND USE THEREOF” (INNOVANUTRA INC., priority 2017, published 2020).
# How the values were obtained:
# [1] = pH stability for quercetin in yeast, in L. casei and unincorporated quercetin; format: physicochemical; settings: pH 3, 4, 5, 6 over time; extraction at every time point
# Method: A comparative pH test at different pH's (3, 4, 5, 6) was done with quercetin incorporated in yeast, in L. casei and un-incorporated quercetin. At every time point, an extraction was done to spectrophotometrically determine the amount of quercetin retained. […] The percent retention is calculated by dividing the absorbance value at each time point with the absorbance value at the initial t=0.
# [2] = Incorporation of quercetin in microbial carriers, extraction and absorbance at 388 nm (incorporation yield and efficiency); format: physicochemical; settings: cell incorporation process
# Method: The phrases “loading efficiency” or “incorporation efficiency” interchangeably refer to the incorporation efficiency on both wet basis determined as follows: IE(%)=CE/CT×100, where CE is the mass of extracted bioactive from the lipid membrane microcapsules after incorporation on a wet basis and CT is the amount of bioactive initially added to the lipid membrane microcapsules. A standard calibration curve was spectrophotometrically obtained for quercetin (QU995 is the food-grade form of quercetin) in dimethyl sulfoxide (DMSO). Incorporation of quercetin in yeast cells with ethanol-buffer mixture was achieved by a non-thermal, vacuum infusion method. Inactivated food-grade yeast cells were used to incorporate quercetin with an initial aim of achieving an incorporation yield or loading percent of 0.5%. The dry yeast cells were first washed with deionized water and an ethanol solution. The washed cells were weighed for use as control (without quercetin) and sample (with quercetin). The incorporation was done in high vacuum conditions and the control and sample were incubated in the dark. […] A 500 μL of supernatant was removed and measured absorbance at 388 nm. […] The problem encountered in a quadruple infusion was crystallization of quercetin around carriers, instead of being incorporated (determined by a multiphoton fluorescence imaging). […]
smiles,measurement,setting,value
O=c1c(O)c(-c2ccc(O)c(O)c2)oc2cc(O)cc(O)c12 [quercetin],pH stability (amount of quercetin retained),[1],rapid degradation over time
same,amount of quercetin that can efficiently incorporate into the cells,[2],12.517 mg/g
